In a melting point compilation (Tetko et al.):

SMILES | melting point
CCOC(=O)c1c(C)n[nH]c1C | 118 to 119 °C
Oc1nccc(C(F)(F)F)n1 | 217 to 218 °C
CCCCCCCC1CCCC1 | -53 °C
CC(=O)C(C)O (stereo unspecified) | 15 °C
Cc1cc(C)n2cnnc2n1 | 165 to 167 °C
CC12CCC(=O)CC1CCC1C2CCC2(C)C1CCC21OCCS1 (stereo unspecified) | 201 °C
CCCCOCCOP(=O)(OCCOCCCC)OCCOCCCC | -70 °C
Cc1cc(C(F)(F)F)n2nc(N)c(/N=N/c3cc(Cl)ccc3Cl)c2n1 | 215 °C
Cc1c(Cl)ncnc1Cl | 58 °C
CC(=O)C12OC1CC1C3CCC4=CC(=O)CCC4(C)C3C(O)CC12C (stereo unspecified) | 206 °C
CCCCCCCCCCCCCC=CC(O)C(N)CO (stereo unspecified) | 81 to 82 °C
N#CCCN1CCN(CCC#N)CC1 | 65 °C
CC1CCCC(=O)C1=O (stereo unspecified) | 58 °C
CC(C)(C)c1cc(C(C)(C)C)c2oc(C(=O)O)cc(=O)c2c1 | 229 to 236 °C
CC(C)(C)OC(=O)NC(=O)OC(C)(C)C | 114 to 117 °C
COc1cc(Br)c(C=CC(=O)O)cc1OC | 253 to 259 °C
Cc1cc(Cl)ccc1OCC(=O)O | 120 °C
Cn1nc(CC#N)c2c(N)ncnc21 | 135 to 138 °C
COc1cc2c(cc1C(C)C)C(=O)C2 | 43 °C
COC1=C(OC)C(C(COS(C)(=O)=O)OS(C)(=O)=O)OC1=O (stereo unspecified) | 77 to 79 °C
Clc1c(Cl)c(Cl)c2c(oc3c(Cl)c(Cl)c(Cl)c(Cl)c32)c1Cl | 258 °C
CC(=O)NC(CCC(N)=O)C(=O)O (stereo unspecified) | 197 °C
CCCCCCCC(=O)OC1CCC2(C)C(=CCC3C2CCC2(C)C(C(C)CCCC(C)C)CCC32)C1 (stereo unspecified) | 110 °C
COc1cc(Br)c(CC#N)cc1OC | 87 to 89 °C
C=C1C(=CC=C2CCCC3(C)C2CCC3C(C)CCCC(C)(C)O)CC(O)CC1O (stereo unspecified) | 115 °C
O=C(O)C(F)(F)C(F)(F)C(F)(F)C(F)(F)C(F)(F)F | 10 °C
CC(CCl)(CCl)C(=O)O | 64 to 66 °C

SMILES | melting point
COC(=O)CCCCCCCCC(=O)OC | 38 °C
NNC(=O)CC(=O)NN | 154 °C
O=C(O)C(F)(F)C(F)(F)C(F)(F)C(F)(F)C(F)(F)C(F)(F)C(F)(F)C(F)(F)C(F)(F)C(F)(F)C(F)(F)C(F)(F)F | 118 to 122 °C
Cc1c(C(=O)O)sc2c1CCCC2 | 218 °C
COC(=O)c1cc(OC)c(C)c(OC)c1 | 104 °C
O=C(Cc1ccccc1)OC1Cc2ccccc21 (stereo unspecified) | 42 °C
CC12CCC(C(=CC(N)=O)C1=O)C2(C)C (stereo unspecified) | 152 °C
CC(C)(C)OC(=O)N1CCC[C@@H]1C(=O)O | 133 to 135 °C
CCNC(=S)NN | 80 to 85 °C
O=S(=O)(O)CCNC1CCCCC1 | 320 °C
Clc1cc(Cl)nc(-c2ccccc2)n1 | 96.9 °C
CCOC(=O)c1cc(C)nc(Cl)n1 | 56.5 to 59 °C
O=C(O)C1CC2CC1CCC2O (stereo unspecified) | 160 to 169 °C
CC(=O)OCCC(C)C | -78.5 °C
Cc1c(Cl)c(Cl)c(Cl)c(Cl)c1Cl | 225 °C
CC12CCCC1C1CCC(CCC(=O)O)C(C)(CCC(=O)O)C1CC2 (stereo unspecified) | 232 °C
CN1CCc2cc3c(cc2C1)OCO3 | 66 °C
Nc1cc(C(F)(F)F)ccc1N1CCCCC1 | 41 to 43 °C
BrCc1cc(Br)cc(Br)c1 | 94 °C
COc1ccc(C(N)=O)c(Cl)c1OC | 165 to 168 °C
Cc1c(N)cc([N+](=O)[O-])cc1C(N)=O | 199 °C
O=C(CCl)c1ccc(Cl)cc1Cl | 54 °C
CC1CCc2cc3c(cc2N1)CCC(C)N3 (stereo unspecified) | 125 to 134 °C
O=C(O)C(C(F)(F)F)C(F)(F)F | 52 °C
NS(=O)(=O)c1ccc(Cl)c(S(N)(=O)=O)c1 | 207 °C
CN=NC | -78 °C
CCCCCCCCCCCCCCCCCCCCCC(=O)OC | 54 °C

Next, values leading:

melting point | SMILES
95 to 96 °C | Brc1ccc(-c2cccs2)cc1
160 to 165 °C | Cc1ccc(N)cc1O
178 °C | CN1CCCN=C1C=Cc1cccs1
82 to 85 °C | O=C(CBr)c1ccc2ccccc2c1
243 °C | Cc1cc2c(C#N)c3ccc4ccccc4n3c(=O)c2c(C)n1
204 to 208 °C | CC(=O)NC1C(Oc2ccccc2[N+](=O)[O-])OC(CO)C(O)C1O (stereo unspecified)
36 °C | CC(=O)OC(C(=O)Cl)c1ccccc1 (stereo unspecified)
167 °C | O=c1ccnc2n(-c3ccccc3)[nH]cc1-2
62 °C | CCOC(C(=O)c1ccccc1)c1ccccc1 (stereo unspecified)
41 °C | BrCCC(c1ccccc1)c1ccccc1
74 to 76 °C | OCc1cccnc1N1CCCC1
104 to 106 °C | C=CCc1c(O)cccc1C=O
160 °C | Cc1ccc(N2C(=O)C3ON=C(C(=O)c4cccs4)C3C2=O)cc1 (stereo unspecified)
137 °C | CN1CCN(C2=Nc3ccccc3Cc3ccccc32)CC1
166 °C | O=Cc1ccc(-c2cccc(C(=O)O)c2)cc1
78 °C | O=C1CCC2(c3ccccc3)OCC(c3ccccc3)N12 (stereo unspecified)
81 to 82 °C | Cc1onc(-c2ccccc2)c1CO
144 to 147 °C | O=C(NC(=S)Nc1ccccn1)c1ccccc1
303 to 305 °C | COc1ccccc1/N=N/c1c(N)nn2c(-c3ccccc3)cc(=O)[nH]c12
181 °C | O=[N+]([O-])c1ccc(CCc2ccc([N+](=O)[O-])cc2)cc1
219 °C | c1ccc(SCc2ccc(CN3CCOCC3)cc2)cc1
150 °C | Nc1nc(-c2ccccc2)cs1
141 to 142 °C | O=C(/C=C/c1ccc(-c2ccc(Br)cc2)o1)c1ccccc1
313 °C | CC1=NN(c2ccccc2)C(=O)/C1=N\Nc1ccc(C(=O)O)cc1
100 °C | N#CC(=Cc1ccc(Cl)cc1)C(N)=O
72 to 82 °C | CC1(C)c2ccccc2NC1C(=O)O (stereo unspecified)

melting point | SMILES
186 °C | Nc1ccc(/C(=C\c2ccccc2N)C(=O)O)cc1
216 to 218 °C | Cc1cc(C(=O)O)ccc1Cl
54 to 55 °C | O=[N+]([O-])c1ccc(OCC2CO2)cc1 (stereo unspecified)
73 to 74 °C | CCOC(=O)C(=NNc1ccccc1[N+](=O)[O-])C(C)=O
150 °C | COc1ccc2c(c1)c(CC(=O)OCC(=O)O)c(C)n2C(=O)c1ccc(Cl)cc1
232 to 235 °C | NNC(=O)c1ccc[nH]1
75 to 76 °C | Cc1nn(-c2ccccc2)nc1CO
93.3 to 93.6 °C | COC1=C(C(C)(C)C(C)C)C(=O)C(=O)c2ccccc21
80 to 83 °C | CCOC(=O)c1cn2ccccc2n1
140 °C | Oc1c(Br)ccc2cccnc12
175 °C | CC(=O)N(C(C)=O)c1cc([N+](=O)[O-])c(/C=C/c2ccccc2)c([N+](=O)[O-])c1/C=C/c1ccccc1
39 to 41 °C | Cc1cc(Cl)c2ccccc2n1
267 to 268 °C | O=[N+]([O-])c1ccc(NN=Cc2cccc3c(Br)cccc23)cc1
174 °C | c1ccc(-c2cc(N3CCCC3)cc(N3CCCC3)c2)cc1
-61 °C | CCCCCCc1ccccc1
266 °C | O=C1OC(c2ccccc2)=N/C1=C/c1cc(/C=C2/N=C(c3ccccc3)OC2=O)c([N+](=O)[O-])cc1[N+](=O)[O-]
158 °C | O=C1c2ccccc2C(=O)N1CCS(=O)(=O)Cl
236 to 237 °C | NC(Cc1ccc([N+](=O)[O-])cc1)C(=O)O (racemic)
76 °C | Cc1ccc(-c2ccc(C)c(C)c2)cc1C
31 °C | COc1cncc(Br)c1
128 °C | CN(C)c1ccc(/C=C(\C#N)c2nc(-c3cccc4ccccc34)cs2)cc1
58 °C | Cc1ccc2c(ccc3ccccc32)c1
68 to 70 °C | CC(NC(=O)OC(C)(C)C)C(=O)N1CCCC1C(=O)OCc1ccccc1 (stereo unspecified)
-5 °C | Nc1cccc(F)c1
138 to 143 °C | O=C1c2ccccc2C(=O)N1CC1CNCCO1 (stereo unspecified)
199 °C | COc1nccnc1N(C(C)=O)S(=O)(=O)c1ccc(N)cc1

melting point | SMILES
88 to 93 °C | COc1ccc(C=CC(=O)c2ccc(F)cc2)cc1OC
73 °C | CSc1ccc2c(c1)N(CCC1CCCCN1C)c1ccccc1S2 (stereo unspecified)
-50 °C | CCCCCN
46.5 °C | Cc1ccc(C(C)(C)C)c(O)c1
206 to 208 °C | NNC(=O)c1cc2ccccc2cc1O
78 to 81 °C | CCOC(=O)c1c(C=O)c(C)n(-c2ccccc2)c1C
224 to 225 °C | COC(=O)C1=C(C)NC(=S)NC1c1ccccc1 (stereo unspecified)
-45 °C | CCCSc1ccccc1
136 °C | CC(OC(=O)Nc1ccccc1)c1cccc(C(C)OC(=O)Nc2ccccc2)c1 (stereo unspecified)
62.5 °C | CCCCCCCCNC(C)C(O)c1ccc(SC(C)C)cc1 (stereo unspecified)
117 to 120 °C | c1ccc2c(c1)OCCOCCOCCOc1ccccc1OCCO2
53 °C | Cc1cc(C#N)ccc1Br
106 °C | OC1(c2ccc(Cl)c(C(F)(F)F)c2)CCN(CCCC(c2ccc(F)cc2)c2ccc(F)cc2)CC1
248 to 254 °C | O=C(O)c1ccc2cc[nH]c2c1
-16 °C | N#Cc1cccc(F)c1
129 °C | CCCCOc1ccc(N=Nc2ccc(N)nc2N)cn1
114 °C | COc1ccccc1OCCNCC(O)COc1cccc2[nH]c3ccccc3c12 (stereo unspecified)
157 to 160 °C | CC(=O)N1CCc2cccc(N)c21
57 to 59 °C | CNCc1ccccc1Cn1cncn1
176 °C | NC(=O)C(Cc1ccc([N+](=O)[O-])cc1)c1ccccc1 (stereo unspecified)
37 to 38 °C | Cc1cc(F)ccc1O
180 °C | ON(C=C(Br)c1ccccc1)c1ccccc1
215 °C | O=C(O)C=CC=Cc1ccc2c(c1)OCO2
150 to 154 °C | NC(=S)c1ccc(C2OCCO2)cc1
215 to 217 °C | O=C(O)c1cccc(N2CCCC2)c1
